Results on six compounds are retold here after ChEMBL document CHEMBL4420076, “Amylin and calcitonin receptor agonist” (2017).

Molecules are shown by their SMILES. In brackets after ≈: the same amount, converted by molar mass. Square brackets hold non-standard residues; d marks the D form. Peptide text beside a SMILES is read from it. * marks the point of attachment. ξ: configuration not given here. C18 diacid = O=C(O)CCCCCCCCCCCCCCCCC(=O)*; Ile(3ξ) = CCC(C)[C@H](N)C(=O)O Bounds are passed on as bounds.

Series [1] in a line: Solubility in 100 mM glycylglycine buffer at pH 3.0 incubated for 18 hrs by UPLC analysis. Type of series: physicochemical.
Series [2] is described as follows: Solubility in 100 mM bistrispropane buffer at pH 6.0 incubated for 18 hrs by UPLC analysis. It counts as physicochemical.
Series [3] is described as follows: Solubility in 100 mM glycylglycine buffer at pH 5.0 incubated for 18 hrs by UPLC analysis. It counts as physicochemical.
A short description of series [4]: Solubility in 100 mM bistrispropane buffer at pH 6.5 incubated for 18 hrs by UPLC analysis. It counts as physicochemical.
Series [5] can be described thus: Solubility in 100 mM bistrispropane buffer at pH 7.0 incubated for 18 hrs by UPLC analysis. Type of series: physicochemical.
Series [6] is described as follows: Solubility in 100 mM bistrispropane buffer at pH 7.5 incubated for 18 hrs by UPLC analysis. Type of series: physicochemical.
Series [7] can be described thus: Solubility in 100 mM bistrispropane buffer at pH 8.0 incubated for 18 hrs by UPLC analysis. It counts as physicochemical.
For series [8], the target named is T1, Amylin receptor AMY3; CALCR/RAMP3 (Homo sapiens, UniProt O60896+P30988).
T1 sequence (P30988 whole entry): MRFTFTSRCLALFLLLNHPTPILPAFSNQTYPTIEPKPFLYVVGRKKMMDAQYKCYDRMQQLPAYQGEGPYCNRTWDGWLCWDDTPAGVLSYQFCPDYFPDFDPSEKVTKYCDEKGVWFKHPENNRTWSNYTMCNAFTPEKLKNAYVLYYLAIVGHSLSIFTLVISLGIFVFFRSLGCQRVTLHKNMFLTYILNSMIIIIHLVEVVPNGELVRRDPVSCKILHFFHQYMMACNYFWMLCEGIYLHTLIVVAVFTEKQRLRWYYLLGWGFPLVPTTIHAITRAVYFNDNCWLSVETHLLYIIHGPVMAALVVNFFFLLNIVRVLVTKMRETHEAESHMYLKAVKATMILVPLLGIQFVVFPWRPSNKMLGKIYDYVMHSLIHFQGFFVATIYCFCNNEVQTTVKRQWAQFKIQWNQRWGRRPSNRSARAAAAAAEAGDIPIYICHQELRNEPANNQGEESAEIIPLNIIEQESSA
T1 sequence (O60896 whole entry): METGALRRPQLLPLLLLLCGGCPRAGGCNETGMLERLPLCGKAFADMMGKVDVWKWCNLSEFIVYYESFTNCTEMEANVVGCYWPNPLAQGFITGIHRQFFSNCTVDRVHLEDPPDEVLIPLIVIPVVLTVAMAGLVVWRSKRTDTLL
In words: Agonist activity at human amylin receptor expressed in BHK570 cells co-expressing RAMP3 assessed as increase in intracellular cAMP concentration incubated for 3 hrs in absence of albumin by CRE luciferase reporter gene assay. It counts as functional, cell-based.

The target in another series is T2, Calcitonin receptor (Homo sapiens, UniProt P30988).
T2 sequence (P30988 whole entry): T1 sequence (P30988 whole entry)
In words: Agonist activity at human calcitonin receptor expressed in BHK570 cells assessed as increase in intracellular cAMP concentration incubated for 3 hrs in absence of albumin by CRE luciferase reporter gene assay. It counts as functional, cell-based.

A short description of series [9]: Solubility in 100 mM glycylglycine buffer at pH 4.0 incubated for 18 hrs by UPLC analysis. It counts as physicochemical.

As for `CC[C@@H](C)[C@H](NC(=O)[C@H](C)NC(=O)[C@@H](NC(=O)[C@H](CO)NC(=O)[C@@H](NC(=O)[C@H](CCC(=O)O)NC(=O)[C@H](CO)NC(=O)[C@H](C)NC(=O)[C@H](CCC(=O)O)NC(=O)CCCCCCCCCCCCCCCCC(=O)O)[C@H](C)CC)[C@@H](C)O)C(=O)N[C@@H](CC(C)C)C(=O)NCC(=O)N[C@@H](CCCNC(=N)N)C(=O)N[C@@H](CC(C)C)C(=O)N[C@@H](CO)C(=O)N[C@@H](C)C(=O)N[C@@H](CCC(=O)O)C(=O)N[C@@H](CC(C)C)C(=O)N[C@@H](Cc1cnc[nH]1)C(=O)N[C@@H](CCC(=O)O)C(=O)N[C@@H](CC(C)C)C(=O)N[C@@H](C)C(=O)N[C@H](C(=O)N[C@@H](CC(C)C)C(=O)N1CCC[C@H]1C(=O)N[C@@H](CCCNC(=N)N)C(=O)N[C@H](C(=O)N[C@@H](CCC(=O)O)C(=O)N[C@H](C(=O)NCC(=O)N1CCC[C@H]1C(=O)N[C@@H](CCC(=O)O)C(=O)N[C@@H](CO)C(=O)N1CCC[C@H]1C(N)=O)[C@@H](C)O)[C@@H](C)O)[C@@H](C)O`, the solubility at 18 h in series [1], in series [2], in [3], in [4], in series [5] and in [6] was not below 200 µM throughout. In series [7], the solubility at 18 h was not below 200 µM.

In the case of `CC[C@H](C)[C@H](NC(=O)[C@H](C)NC(=O)[C@@H](NC(=O)[C@H](CO)NC(=O)[C@@H](NC(=O)[C@H](CCC(=O)O)NC(=O)[C@H](CO)NC(=O)[C@H](C)NC(=O)[C@H](CCC(=O)O)NC(=O)CCCCCCCCCCCCCCCCC(=O)O)[C@@H](C)CC)[C@@H](C)O)C(=O)N[C@H](C(=O)NCC(=O)N[C@@H](CCCNC(=N)N)C(=O)N[C@@H](CC(C)C)C(=O)N[C@@H](CO)C(=O)N[C@@H](C)C(=O)N[C@@H](CCC(=O)O)C(=O)N[C@@H](CC(C)C)C(=O)N[C@@H](Cc1cnc[nH]1)C(=O)N[C@@H](CCC(=O)O)C(=O)N[C@@H](CC(C)C)C(=O)N[C@@H](C)C(=O)N[C@H](C(=O)N[C@@H](CC(C)C)C(=O)N1CCC[C@H]1C(=O)N[C@@H](CCCNC(=N)N)C(=O)N[C@H](C(=O)N[C@@H](CCC(=O)O)C(=O)N[C@H](C(=O)NCC(=O)N1CCC[C@H]1C(=O)N[C@@H](CCC(=O)O)C(=O)N[C@@H](CO)C(=O)N1CCC[C@H]1C(N)=O)[C@@H](C)O)[C@@H](C)O)[C@@H](C)O)[C@@H](C)CC` ({C18 diacid}-EASEISTAIIGRLSAELHELATLPRTETGPESP-NH2), the EC50 in series [8] is 0.01 nM; at Calcitonin receptor it was 5 pM. In addition, the solubility at 18 h in series [1], in series [2], in series [3], in [4], in series [5] and in series [6] was not below 200 µM in each case. This compound also returned a solubility at 18 h in [7] not below 200 µM.

With `CC(C)C[C@H](NC(=O)[C@H](C)NC(=O)[C@H](C)NC(=O)[C@@H](NC(=O)[C@H](CO)NC(=O)[C@H](CC(C)C)NC(=O)[C@H](CCC(=O)O)NC(=O)[C@H](CO)NC(=O)[C@H](C)NC(=O)[C@H](CCC(=O)O)NC(=O)CCCCCCCCCCCCCCCCC(=O)O)[C@@H](C)O)C(=O)NCC(=O)N[C@@H](CCCNC(=N)N)C(=O)N[C@@H](CC(C)C)C(=O)N[C@@H](CO)C(=O)N[C@@H](C)C(=O)N[C@@H](CCC(=O)O)C(=O)N[C@@H](CC(C)C)C(=O)N[C@@H](Cc1cnc[nH]1)C(=O)N[C@@H](CCC(=O)O)C(=O)N[C@@H](CC(C)C)C(=O)N[C@@H](C)C(=O)N[C@H](C(=O)N[C@@H](Cc1ccc(O)cc1)C(=O)N1CCC[C@H]1C(=O)N[C@@H](CCCNC(=N)N)C(=O)N[C@H](C(=O)N[C@@H](CCC(=O)O)C(=O)N[C@H](C(=O)NCC(=O)N1CCC[C@H]1C(=O)N[C@@H](CCC(=O)O)C(=O)N[C@@H](CO)C(=O)N1CCC[C@H]1C(N)=O)[C@@H](C)O)[C@@H](C)O)[C@@H](C)O` ({C18 diacid}-EASELSTAALGRLSAELHELATYPRTETGPESP-NH2), the EC50 in [8] is 0.011 nM; on Calcitonin receptor it was 7 pM.

With `CCC(C)[C@H](NC(=O)[C@@H](NC(=O)[C@H](C)NC(=O)[C@@H](NC(=O)[C@H](CO)NC(=O)[C@H](CC(C)C)NC(=O)[C@H](CCC(=O)O)NC(=O)[C@H](CO)NC(=O)[C@H](C)NC(=O)[C@H](CCC(=O)O)NC(=O)CCCCCCCCCCCCCCCCC(=O)O)[C@@H](C)O)C(C)C)C(=O)NCC(=O)N[C@@H](CCCNC(=N)N)C(=O)N[C@@H](CC(C)C)C(=O)N[C@@H](CO)C(=O)N[C@@H](C)C(=O)N[C@@H](CCC(=O)O)C(=O)N[C@@H](CC(C)C)C(=O)N[C@@H](Cc1cnc[nH]1)C(=O)N[C@@H](CCC(=O)O)C(=O)N[C@@H](CC(C)C)C(=O)N[C@@H](C)C(=O)N[C@H](C(=O)N[C@@H](CC(C)C)C(=O)N1CCC[C@H]1C(=O)N[C@@H](CCCNC(=N)N)C(=O)N[C@H](C(=O)N[C@@H](CCC(=O)O)C(=O)N[C@H](C(=O)NCC(=O)N1CCC[C@H]1C(=O)N[C@@H](CCC(=O)O)C(=O)N[C@@H](CO)C(=O)N1CCC[C@H]1C(N)=O)[C@@H](C)O)[C@@H](C)O)[C@@H](C)O` (stereo not given in full) ({C18 diacid}-EASELSTAV[Ile(3ξ)]GRLSAELHELATLPRTETGPESP-NH2), the solubility at 18 h in [1], in series [9], in [2], in [3], in series [4] and in series [5] was not below 200 µM in each case. Further, the solubility at 18 h in series [6] and in [7] was not below 200 µM in each case.

Turning to `CC(C)C[C@H](NC(=O)[C@H](CCCNC(=N)N)NC(=O)CNC(=O)[C@H](CC(C)C)NC(=O)[C@@H](NC(=O)[C@H](C)NC(=O)[C@@H](NC(=O)[C@H](CO)NC(=O)[C@@H](NC(=O)[C@H](CCC(=O)O)NC(=O)[C@H](CO)NC(=O)[C@H](C)NC(=O)[C@H](CCC(=O)O)NC(=O)CCCCCCCCCCCCCCCCC(=O)O)C(C)C)[C@@H](C)O)C(C)C)C(=O)N[C@@H](CO)C(=O)N[C@@H](C)C(=O)N[C@@H](CCC(=O)O)C(=O)N[C@@H](CC(C)C)C(=O)N[C@@H](Cc1cnc[nH]1)C(=O)N[C@@H](CCC(=O)O)C(=O)N[C@H](C(=O)N[C@@H](C)C(=O)N[C@H](C(=O)N[C@@H](CC(C)C)C(=O)N1CCC[C@H]1C(=O)N[C@@H](CCCNC(=N)N)C(=O)N[C@H](C(=O)N[C@@H](CCC(=O)O)C(=O)N[C@H](C(=O)NCC(=O)N1CCC[C@H]1C(=O)N[C@@H](CCC(=O)O)C(=O)N[C@@H](CO)C(=O)N1CCC[C@H]1C(N)=O)[C@@H](C)O)[C@@H](C)O)[C@@H](C)O)C(C)C` ({C18 diacid}-EASEVSTAVLGRLSAELHEVATLPRTETGPESP-NH2), the EC50 in series [8] is 0.023 nM; at Calcitonin receptor it was 54 pM. Moreover, the solubility at 18 h in [2], in series [4], in [5], in series [6] and in series [7] was not below 200 µM each time.

For the compound `CC(C)C[C@H](NC(=O)[C@H](CCCNC(=N)N)NC(=O)CNC(=O)[C@H](CC(C)C)NC(=O)[C@@H](NC(=O)[C@H](C)NC(=O)[C@@H](NC(=O)[C@H](CO)NC(=O)[C@H](CC(C)C)NC(=O)[C@H](CCC(=O)O)NC(=O)[C@H](CO)NC(=O)[C@H](C)NC(=O)CC[C@H](NC(=O)CCCCCCCCCCCCCCCCCCC(=O)O)C(=O)O)[C@@H](C)O)C(C)C)C(=O)N[C@@H](CO)C(=O)N[C@@H](CCC(N)=O)C(=O)N[C@@H](CCC(=O)O)C(=O)N[C@@H](CC(C)C)C(=O)N[C@@H](Cc1cnc[nH]1)C(=O)N[C@@H](CCC(=O)O)C(=O)N[C@@H](CC(C)C)C(=O)N[C@@H](CCC(N)=O)C(=O)N[C@H](C(=O)N[C@@H](Cc1ccc(O)cc1)C(=O)N1CCC[C@H]1C(=O)N[C@@H](CCCNC(=N)N)C(=O)N[C@H](C(=O)N[C@@H](CCC(=O)O)C(=O)N[C@H](C(=O)NCC(=O)N[C@@H](CO)C(=O)NCC(=O)N[C@H](C(=O)N[C@@H](Cc1ccc(O)cc1)C(N)=O)[C@@H](C)O)[C@@H](C)O)[C@@H](C)O)[C@H](C)O`, the solubility at 18 h in series [1] was not below 200 µM; in series [2] it was not below 200 µM; in series [3], 7 µM (≈ 27.6 µg/mL); in series [4], not below 200 µM; in [5] it was not below 200 µM; in series [6], not below 200 µM. The compound also yielded a solubility at 18 h in series [7] not below 200 µM.

Usually solubility stands for the dissolved amount per volume that the medium holds. Read a high solubility as a readily soluble substance. Broadly, the EC50 is the concentration needed to bring the measured effect to its halfway point.
